According to ChEMBL document CHEMBL4507297, “Data for DCP probe PF-04457845” (2021):

How the values were obtained:
[1] = molecular target: GABA-A receptor; anion channel (Rattus norvegicus) (UniProt O09028+P15431+P18506+P18508+P19969+P20236+P23574+P23576+P28471+P28473+P30191+P62813+P63079+P63138+Q91ZM7+Q9ES14); details: Compound concentration 10.0 uM
[2] = molecular target: T1, GABA-A receptor; anion channel (Homo sapiens) (UniProt P14867+P47870+P18507+P28472+P48169+Q99928+Q9UN88+P34903+O00591+O14764+Q8N1C3+P18505+P78334+P47869+P31644+Q16445); assay: BZD (central) CEREP ligand profiling; type: protein-complex assay; details: Compound concentration 10.0 uM
[3] = molecular target: Delta-type opioid receptor (Homo sapiens) (UniProt P41143); assay: delta2 (h) (DOP) CEREP ligand profiling; details: Compound concentration 10.0 uM
[4] = molecular target: T2, 5-hydroxytryptamine receptor 3A (Homo sapiens) (UniProt P46098); assay: 5-HT3 (h) CEREP ligand profiling; details: Compound concentration 10.0 uM
T2 sequence (whole entry): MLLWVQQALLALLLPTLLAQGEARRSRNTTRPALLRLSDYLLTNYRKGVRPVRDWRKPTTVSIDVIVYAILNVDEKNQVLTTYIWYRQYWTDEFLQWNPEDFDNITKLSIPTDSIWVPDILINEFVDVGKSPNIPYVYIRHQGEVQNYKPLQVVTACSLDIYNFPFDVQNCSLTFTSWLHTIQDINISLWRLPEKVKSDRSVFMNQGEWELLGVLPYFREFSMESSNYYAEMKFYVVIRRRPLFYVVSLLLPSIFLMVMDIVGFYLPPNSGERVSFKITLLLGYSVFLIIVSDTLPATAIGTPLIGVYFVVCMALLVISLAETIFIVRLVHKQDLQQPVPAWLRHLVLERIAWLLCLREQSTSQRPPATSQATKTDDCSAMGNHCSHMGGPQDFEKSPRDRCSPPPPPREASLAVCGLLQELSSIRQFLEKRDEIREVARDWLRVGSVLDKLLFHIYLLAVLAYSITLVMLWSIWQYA

[5] = molecular target: D(2) dopamine receptor (Homo sapiens) (UniProt P14416); assay: D2S (h) CEREP ligand profiling; details: Compound concentration 10.0 uM
[6] = molecular target: Cannabinoid receptor 1 (Homo sapiens, UniProt P21554); assay: CB1 (h) CEREP ligand profiling
Sequence of Cannabinoid receptor 1 (P21554 whole entry): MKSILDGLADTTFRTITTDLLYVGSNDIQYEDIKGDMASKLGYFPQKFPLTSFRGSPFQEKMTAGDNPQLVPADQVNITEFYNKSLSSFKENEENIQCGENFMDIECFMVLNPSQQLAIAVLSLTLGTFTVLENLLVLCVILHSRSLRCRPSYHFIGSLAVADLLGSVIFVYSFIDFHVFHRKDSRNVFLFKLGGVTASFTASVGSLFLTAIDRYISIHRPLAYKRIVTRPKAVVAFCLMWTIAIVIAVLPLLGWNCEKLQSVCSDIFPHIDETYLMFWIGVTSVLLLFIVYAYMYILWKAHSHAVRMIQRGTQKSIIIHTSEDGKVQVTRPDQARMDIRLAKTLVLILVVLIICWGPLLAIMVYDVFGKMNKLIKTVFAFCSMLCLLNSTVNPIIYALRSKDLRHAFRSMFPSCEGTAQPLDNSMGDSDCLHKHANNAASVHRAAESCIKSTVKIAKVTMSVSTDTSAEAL

[7] = molecular target: Alpha-2B adrenergic receptor (Homo sapiens) (UniProt P18089); details: Compound concentration 10.0 uM
[8] = GPCRScan assay: inhibition of GABA/PBR; design: species or system Rattus norvegicus; radioligand conc. used [nm] 0.3 – 2.0, parental cells brain tissue
[9] = Glycine (strychnine-insensitive) CEREP ligand profiling; details: Compound concentration 10.0 uM
[10] = molecular target: Voltage-dependent N-type calcium channel subunit alpha-1B (Homo sapiens) (UniProt Q00975); assay: Ca2+ channel (N) CEREP ligand profiling; details: Compound concentration 10.0 uM
[11] = molecular target: Beta-1 adrenergic receptor (Homo sapiens) (UniProt P08588); assay: beta1 (h) CEREP ligand profiling; details: Compound concentration 10.0 uM
[12] = molecular target: Sodium- and chloride-dependent GABA transporter 1 (Homo sapiens) (UniProt P30531); assay: GABA transporter CEREP ligand profiling; details: Compound concentration 10.0 uM
Sequence of Sodium- and chloride-dependent GABA transporter 1 (Homo sapiens) (P30531 whole entry, looked up): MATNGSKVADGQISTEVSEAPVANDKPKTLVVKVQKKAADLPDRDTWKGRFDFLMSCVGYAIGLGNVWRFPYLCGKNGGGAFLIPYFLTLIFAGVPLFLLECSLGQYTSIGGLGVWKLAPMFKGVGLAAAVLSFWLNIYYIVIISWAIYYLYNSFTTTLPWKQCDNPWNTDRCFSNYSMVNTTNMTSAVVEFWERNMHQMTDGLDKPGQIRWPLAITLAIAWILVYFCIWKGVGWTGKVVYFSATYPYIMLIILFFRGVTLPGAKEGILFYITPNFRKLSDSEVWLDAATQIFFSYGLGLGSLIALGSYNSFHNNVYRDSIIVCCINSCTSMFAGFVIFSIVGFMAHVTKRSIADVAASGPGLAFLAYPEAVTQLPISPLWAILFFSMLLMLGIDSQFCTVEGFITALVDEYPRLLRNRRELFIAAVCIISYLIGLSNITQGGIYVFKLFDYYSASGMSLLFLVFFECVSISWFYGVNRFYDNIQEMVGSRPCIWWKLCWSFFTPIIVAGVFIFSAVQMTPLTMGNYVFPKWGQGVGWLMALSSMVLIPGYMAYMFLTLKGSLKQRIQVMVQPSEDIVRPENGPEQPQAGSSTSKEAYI

[13] = molecular target: Neuronal acetylcholine receptor; alpha4/beta2 (Homo sapiens) (UniProt P17787+P43681); assay: N(neuronal) (α-BGTX-insensitive) (α4β2 nicotinic receptor) CEREP ligand profiling; details: Compound concentration 10.0 uM
[14] = molecular target: Sodium-dependent serotonin transporter (Homo sapiens) (UniProt P31645); assay: 5-HT transporter (h) CEREP ligand profiling; details: Compound concentration 10.0 uM
Sequence of Sodium-dependent serotonin transporter (Homo sapiens) (P31645 whole entry, looked up): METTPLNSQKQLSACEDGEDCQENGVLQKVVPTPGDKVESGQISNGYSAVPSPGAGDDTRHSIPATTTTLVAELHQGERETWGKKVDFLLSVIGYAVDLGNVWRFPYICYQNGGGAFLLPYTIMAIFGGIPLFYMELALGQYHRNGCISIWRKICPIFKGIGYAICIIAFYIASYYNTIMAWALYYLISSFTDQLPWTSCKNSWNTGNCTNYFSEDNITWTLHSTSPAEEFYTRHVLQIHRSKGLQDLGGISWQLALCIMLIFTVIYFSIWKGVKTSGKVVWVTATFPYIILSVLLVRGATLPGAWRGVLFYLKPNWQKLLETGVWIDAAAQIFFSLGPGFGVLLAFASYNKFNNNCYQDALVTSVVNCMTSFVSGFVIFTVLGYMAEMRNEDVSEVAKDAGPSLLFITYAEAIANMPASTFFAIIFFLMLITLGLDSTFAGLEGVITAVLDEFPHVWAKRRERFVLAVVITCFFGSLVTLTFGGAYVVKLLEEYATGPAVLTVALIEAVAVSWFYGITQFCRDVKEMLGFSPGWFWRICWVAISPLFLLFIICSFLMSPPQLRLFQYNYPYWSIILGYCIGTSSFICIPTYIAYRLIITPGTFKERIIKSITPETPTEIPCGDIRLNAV

[15] = molecular target: D(1A) dopamine receptor (Homo sapiens) (UniProt P21728); assay: D1 (h) CEREP ligand profiling; details: Compound concentration 10.0 uM
Sequence of D(1A) dopamine receptor (Homo sapiens) (P21728 whole entry): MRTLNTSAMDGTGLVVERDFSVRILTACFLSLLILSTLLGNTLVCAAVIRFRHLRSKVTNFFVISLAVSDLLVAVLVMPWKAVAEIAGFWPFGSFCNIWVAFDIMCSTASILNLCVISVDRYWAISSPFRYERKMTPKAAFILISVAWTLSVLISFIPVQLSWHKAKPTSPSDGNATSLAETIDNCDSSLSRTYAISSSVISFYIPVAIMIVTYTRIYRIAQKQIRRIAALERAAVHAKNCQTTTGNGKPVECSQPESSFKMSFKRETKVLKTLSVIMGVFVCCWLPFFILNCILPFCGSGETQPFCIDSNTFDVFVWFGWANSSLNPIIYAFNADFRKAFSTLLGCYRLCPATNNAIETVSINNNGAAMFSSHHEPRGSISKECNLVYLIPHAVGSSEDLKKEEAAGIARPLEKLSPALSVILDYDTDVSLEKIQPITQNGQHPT

[16] = molecular target: T1, GABA-A receptor; anion channel (Homo sapiens); assay: GABAA CEREP ligand profiling; type: protein-complex assay; details: Compound concentration 10.0 uM
[17] = molecular target: MAO-A (Amine oxidase [flavin-containing] A) (Homo sapiens, UniProt P21397); assay: MAO-A CEREP ligand profiling; details: compound concentration 10 uM
[18] = molecular target: Phosphodiesterase 3 (Homo sapiens) (UniProt Q14432+Q13370); assay: PDE 3 (h) CEREP ligand profiling; type: protein assay; details: Compound concentration 10.0 uM
[19] = molecular target: Acetylcholinesterase (Homo sapiens) (UniProt P22303); assay: Acetylcholinesterase (h) CEREP ligand profiling; details: Compound concentration 10.0 uM
Sequence of Acetylcholinesterase (Homo sapiens) (P22303 whole entry): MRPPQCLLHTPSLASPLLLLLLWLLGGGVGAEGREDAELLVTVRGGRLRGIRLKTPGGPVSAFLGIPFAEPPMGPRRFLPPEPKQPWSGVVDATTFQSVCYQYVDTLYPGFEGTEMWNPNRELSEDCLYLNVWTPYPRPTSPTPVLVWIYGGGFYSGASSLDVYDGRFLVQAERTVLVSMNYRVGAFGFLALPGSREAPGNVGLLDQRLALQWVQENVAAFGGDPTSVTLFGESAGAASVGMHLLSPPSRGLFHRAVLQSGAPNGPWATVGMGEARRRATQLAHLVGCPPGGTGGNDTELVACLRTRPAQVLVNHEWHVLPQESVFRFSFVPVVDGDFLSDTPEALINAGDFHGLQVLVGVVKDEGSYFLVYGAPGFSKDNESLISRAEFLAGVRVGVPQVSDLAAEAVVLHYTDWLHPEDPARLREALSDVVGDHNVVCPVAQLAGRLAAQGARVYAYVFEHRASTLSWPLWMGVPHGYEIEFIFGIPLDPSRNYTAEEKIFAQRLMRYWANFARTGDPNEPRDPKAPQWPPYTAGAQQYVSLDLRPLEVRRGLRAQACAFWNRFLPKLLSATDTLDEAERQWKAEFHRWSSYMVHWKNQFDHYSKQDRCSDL

[20] = molecular target: Cannabinoid receptor 2 (Homo sapiens, UniProt P34972); assay: CB2 (h) CEREP ligand profiling
Sequence of Cannabinoid receptor 2 (P34972 whole entry): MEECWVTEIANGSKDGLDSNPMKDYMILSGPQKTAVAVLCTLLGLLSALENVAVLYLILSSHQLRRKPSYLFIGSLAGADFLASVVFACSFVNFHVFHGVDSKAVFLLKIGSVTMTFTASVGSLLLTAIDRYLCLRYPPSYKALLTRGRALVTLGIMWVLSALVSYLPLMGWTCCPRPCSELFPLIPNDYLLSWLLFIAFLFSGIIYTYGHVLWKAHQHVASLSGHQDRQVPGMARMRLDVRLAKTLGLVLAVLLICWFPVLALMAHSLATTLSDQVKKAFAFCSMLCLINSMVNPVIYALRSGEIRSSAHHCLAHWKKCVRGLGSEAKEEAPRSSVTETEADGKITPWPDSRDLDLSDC

[21] = molecular target: T3, Muscarinic acetylcholine receptor M2 (Homo sapiens) (UniProt P08172); assay: M2 (h) CEREP ligand profiling; details: Compound concentration 10.0 uM
T3 sequence (whole entry): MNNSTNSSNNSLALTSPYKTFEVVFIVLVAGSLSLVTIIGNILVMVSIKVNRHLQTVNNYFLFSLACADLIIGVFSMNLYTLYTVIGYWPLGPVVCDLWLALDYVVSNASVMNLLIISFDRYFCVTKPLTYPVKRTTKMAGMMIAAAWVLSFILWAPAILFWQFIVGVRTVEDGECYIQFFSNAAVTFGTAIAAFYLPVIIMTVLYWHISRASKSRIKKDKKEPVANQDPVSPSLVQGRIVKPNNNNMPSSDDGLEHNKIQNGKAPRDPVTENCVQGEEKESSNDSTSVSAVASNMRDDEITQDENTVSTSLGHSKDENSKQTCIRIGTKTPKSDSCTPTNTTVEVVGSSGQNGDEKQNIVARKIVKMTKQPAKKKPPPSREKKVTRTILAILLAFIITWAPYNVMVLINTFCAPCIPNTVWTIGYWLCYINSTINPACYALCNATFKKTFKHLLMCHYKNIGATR

[22] = molecular target: High affinity choline transporter 1 (Homo sapiens) (UniProt Q9GZV3); assay: Choline transporter (h) (CHT1) CEREP ligand profiling; details: Compound concentration 10.0 uM
[23] = molecular target: 5-hydroxytryptamine receptor 2B (Homo sapiens, UniProt P41595); assay: 5-HT2B (h) (agonist site) CEREP ligand profiling; details: Compound concentration 10.0 uM
[24] = molecular target: 5-hydroxytryptamine receptor 4 (Homo sapiens) (UniProt Q13639); assay: 5-HT4e (h) CEREP ligand profiling; details: Compound concentration 10.0 uM
Sequence of 5-hydroxytryptamine receptor 4 (Homo sapiens) (Q13639 whole entry): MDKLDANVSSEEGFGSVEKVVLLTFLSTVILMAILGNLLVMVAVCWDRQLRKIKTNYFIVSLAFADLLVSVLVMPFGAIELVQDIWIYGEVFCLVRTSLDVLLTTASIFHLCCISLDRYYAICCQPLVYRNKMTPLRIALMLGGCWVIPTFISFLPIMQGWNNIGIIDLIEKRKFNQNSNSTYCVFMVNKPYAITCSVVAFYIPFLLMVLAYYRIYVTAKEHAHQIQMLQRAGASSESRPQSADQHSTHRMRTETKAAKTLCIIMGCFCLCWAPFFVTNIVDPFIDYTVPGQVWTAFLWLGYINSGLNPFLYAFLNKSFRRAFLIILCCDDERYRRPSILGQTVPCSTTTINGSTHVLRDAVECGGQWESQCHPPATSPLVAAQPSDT

[25] = molecular target: Beta-3 adrenergic receptor (Homo sapiens) (UniProt P13945); details: Compound concentration 10.0 uM
Sequence of Beta-3 adrenergic receptor (Homo sapiens) (P13945 whole entry, looked up): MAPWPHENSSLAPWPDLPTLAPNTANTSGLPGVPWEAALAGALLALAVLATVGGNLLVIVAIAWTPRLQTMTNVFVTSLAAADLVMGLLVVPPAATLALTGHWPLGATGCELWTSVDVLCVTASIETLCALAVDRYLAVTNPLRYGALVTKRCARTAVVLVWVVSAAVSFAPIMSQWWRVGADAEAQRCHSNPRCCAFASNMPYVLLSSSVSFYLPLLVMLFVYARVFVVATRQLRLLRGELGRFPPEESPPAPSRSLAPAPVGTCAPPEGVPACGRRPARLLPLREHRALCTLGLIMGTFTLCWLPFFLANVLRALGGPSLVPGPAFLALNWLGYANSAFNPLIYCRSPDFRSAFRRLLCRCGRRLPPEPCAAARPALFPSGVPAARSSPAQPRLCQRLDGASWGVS

[26] = molecular target: Histamine H1 receptor (Homo sapiens) (UniProt P35367); assay: H1 (h) CEREP ligand profiling; details: Compound concentration 10.0 uM
[27] = molecular target: Mu-type opioid receptor (Homo sapiens) (UniProt P35372); assay: mu (h) (MOP) (agonist site) CEREP ligand profiling; details: Compound concentration 10.0 uM
Sequence of Mu-type opioid receptor (Homo sapiens) (P35372 whole entry): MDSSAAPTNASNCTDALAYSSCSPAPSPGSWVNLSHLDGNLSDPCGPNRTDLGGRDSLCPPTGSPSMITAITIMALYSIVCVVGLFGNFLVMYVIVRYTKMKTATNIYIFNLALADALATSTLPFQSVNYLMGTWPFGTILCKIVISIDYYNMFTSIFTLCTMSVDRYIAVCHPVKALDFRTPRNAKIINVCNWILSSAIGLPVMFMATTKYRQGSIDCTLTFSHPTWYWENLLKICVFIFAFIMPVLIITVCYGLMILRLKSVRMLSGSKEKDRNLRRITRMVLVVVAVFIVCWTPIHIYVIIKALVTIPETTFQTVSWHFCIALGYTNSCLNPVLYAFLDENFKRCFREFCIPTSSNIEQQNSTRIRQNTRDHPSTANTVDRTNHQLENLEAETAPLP

[28] = molecular target: Sodium-dependent noradrenaline transporter (Homo sapiens) (UniProt P23975); assay: NE transporter (h) CEREP ligand profiling; details: Compound concentration 10.0 uM
Sequence of Sodium-dependent noradrenaline transporter (Homo sapiens) (P23975 whole entry): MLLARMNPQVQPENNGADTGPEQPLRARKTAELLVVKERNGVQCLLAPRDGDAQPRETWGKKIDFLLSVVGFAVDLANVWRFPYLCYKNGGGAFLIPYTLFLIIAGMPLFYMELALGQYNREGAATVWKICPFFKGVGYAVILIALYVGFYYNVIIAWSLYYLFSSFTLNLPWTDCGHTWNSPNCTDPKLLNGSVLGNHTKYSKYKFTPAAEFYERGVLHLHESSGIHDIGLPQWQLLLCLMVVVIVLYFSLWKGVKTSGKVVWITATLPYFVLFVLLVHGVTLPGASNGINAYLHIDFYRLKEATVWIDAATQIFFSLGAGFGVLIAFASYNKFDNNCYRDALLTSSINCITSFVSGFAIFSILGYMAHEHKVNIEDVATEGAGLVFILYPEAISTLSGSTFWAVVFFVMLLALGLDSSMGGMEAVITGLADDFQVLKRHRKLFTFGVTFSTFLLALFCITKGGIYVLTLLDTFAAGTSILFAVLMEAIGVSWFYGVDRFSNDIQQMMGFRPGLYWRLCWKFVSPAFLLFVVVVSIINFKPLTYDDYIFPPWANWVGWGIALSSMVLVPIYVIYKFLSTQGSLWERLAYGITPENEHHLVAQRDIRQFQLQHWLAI

[29] = molecular target: Sodium-dependent dopamine transporter (Homo sapiens) (UniProt Q01959); assay: DA transporter (h) CEREP ligand profiling; details: Compound concentration 10.0 uM

O=C(Nc1cccnn1)N1CC(C/C=C/c2cncc(Oc3ccc(C(F)(F)F)cn3)n2)C1
inhibition [1]: 23.7%

O=C(Nc1cccnn1)N1CCC(=Cc2cccc(Oc3ccc(C(F)(F)F)cn3)c2)CC1
inhibition [2]: 15%
inhibition [3]: 2%
inhibition [4]: -8%
inhibition [5]: -9%
Ki [6]: 14 µM
inhibition ([6]; Compound concentration 10.0 uM): 55%
inhibition [7]: 40%
Ki [8]: 1.14 µM
pKi [8]: 5.94
inhibition [9]: -2%
inhibition [10]: -5%
inhibition [11]: 1%
inhibition [12]: -1%
inhibition [13]: 8%
inhibition [14]: 11%
inhibition [15]: 3%
inhibition [16]: -4%
inhibition at 10 µM [17]: 13% (not active)
inhibition [18]: 10%
inhibition [19]: 10%
Ki [20]: 5.1 µM
inhibition ([20]; Compound concentration 10.0 uM): 55%
inhibition [21]: 15%
inhibition [22]: 18%
inhibition [23]: 35%
inhibition [24]: -8%
inhibition [25]: 0.69%
inhibition [26]: -1%
inhibition [27]: 3%
inhibition [28]: -5%
inhibition [29]: -1%
